Test results as given in patent publication US20200231638A1, “STABILIZED ANTI-MICROBIAL PEPTIDES” (priority 2015, published 2020).
In brackets after ≈: the same amount, converted by molar mass. Bridge positions count the residues as written; N and C are the ends. Square brackets hold non-standard residues; d marks the D form. Ends that are not written are not given here. Peptide text beside a SMILES is read from it. R8 = C=CCCCCCC[C@@](C)(N)C(=O)O; S5 = C=CCCC[C@](C)(N)C(=O)O; Nle = CCCC[C@H](N)C(=O)O

Experiments:
B. cereus = assay type: cell-based, Bacillus cereus
In short: (§1)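 Microdilution MIC test in polyanion-depleted MHB, with a final inoculum of 5×10^5 CFU/ml and 20-24 h incubation at 37° C.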

E. coli = assay type: cell-based, Escherichia coli
In short: as §1

[1] = Circular dichroism spectroscopy (α-helicity); assay type: physicochemical; conditions: for α-helicity by CD in the presence of TFE: TFE 50% v/v; for α-helicity by CD in water, absence of TFE: aqueous solution, no TFE
Method: To determine the helicity of the panel of stapled magainin II analogues, the peptides were dissolved in water using CD spectroscopy in the presence and absence of trifluoroethanol (TFE; 50% v/v), a helix-promoting solvent. […] Levels of helicity ranged from approximately 34% for MagStap 2 to 100% for MagStap 1 and 3, as compared to an idealized α-helical peptide. […] When the helicity in the presence of TFE was measured, most of the stapled analogues were 50-60% helical except for MagStap 3, which retained 100% α-helical content.
Circular Dichroism Spectroscopy:
Compounds were dissolved in an aqueous solution (e.g. 5 mM potassium phosphate solution at pH 7, or distilled H2O, to concentrations of 25-50 μM). Circular dichroism (CD) spectra were obtained on a spectropolarimeter (Aviv) using standard measurement parameters (e.g., temperature, 37° C.; wavelength, 190-260 nm; step resolution, 0.5 nm; speed, 20 nm/sec; accumulations, 10; response, 1 sec; bandwidth, 1 nm; path length, 0.1 cm). The α-helical content of each peptide was calculated by dividing the mean residue ellipticity by the reported value for a model helical decapeptide (see, e.g., Yang et al., Meth Enzymol. 130:208 (1986)).

S. marcescens = assay type: cell-based
Method: Antimicrobial Activity Assay:
The following microbroth dilution protocol was adapted to determine the minimum inhibitory concentration (MIC) of each peptide. First, Mueller-Hinton broth (MHB) was passed through an anion exchange column to remove polyanionic species and generate refined MHB. […] Briefly, bacterial cells was grown overnight in refined MHB at 37° C. and then diluted and allowed to grow again for several hours. Serial dilutions of peptide stocks in water (10 μl) were prepared using clear round-bottom polypropylene 96-well plates. Then 90 μl of bacteria in refined MHB was added to give a final inoculum of 5×10^5 CFU/ml. The plates were then covered with porous tape to reduce evaporation, and incubated for 20-24 hours at 37° C. The MIC is the minimum peptide concentration at which no visible growth was observed.

human red blood cells = assay type: cell-based
In short: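 Hemolysis expressed as absorbance of released hemoglobin (570 nm) normalized between untreated and 1% Triton-X100 controls, with MHC taken as peptide concentration giving under 1% release. Peptide dilutions were exposed for 1 h at 37° C to a 1% (v/v) suspension of washed human red cells in PBS.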

S. aureus = assay type: cell-based, Staphylococcus aureus
In short: as §1

P. aeruginosa = assay type: cell-based, Pseudomonas aeruginosa
In short: as §1

Molecule	MIC B. cereus (B. cereus) [µg/mL]	MIC E. coli (E. coli) [µg/mL]	α-helicity by CD in the presence of TFE [1]	α-helicity by CD in water, absence of TFE [1]	MIC S. marcescens (S. marcescens) [µg/mL]	MIC S. aureus (S. aureus) [µg/mL]	MIC P. aeruginosa (P. aeruginosa) [µg/mL]	hemolytic activity (in words) (human red blood cells)
GIGKFLKKAKKFGKAFVKILKK-NH2 [Pexiganan, reference compound]	3.1	3.3	–	–	>50	6.3	1.6	no hemolysis
CC[C@H](C)[C@H](NC(=O)CN)C(=O)NCC(=O)N[C@@H](CCCCN)C(=O)N[C@@H](Cc1ccccc1)C(=O)N[C@@H](CC(C)C)C(=O)N[C@@H](CCCCN)C(=O)N[C@@H](CCCCN)C(=O)N[C@@H](C)C(=O)N[C@@H](CCCCN)C(=O)N[C@]1(C)CCCCCCC(O)C(O)CCC[C@@](C)(C(=O)N[C@H](C(=O)N[C@@H](CC(C)C)C(=O)N[C@@H](CCCCN)C(=O)N[C@@H](CCCCN)C(N)=O)[C@@H](C)CC)NC(=O)[C@H](C(C)C)NC(=O)[C@H](Cc2ccccc2)NC(=O)[C@H](C)NC(=O)[C@H](CCCCN)NC(=O)CNC(=O)[C@H](Cc2ccccc2)NC1=O (some centres unmarked) [PexDiol 5]	3.1 (≈ 1.22 µM)	1.6 (≈ 0.628 µM)	–	–	>50	3.1 (≈ 1.22 µM)	1.6 (≈ 0.628 µM)	significant hemolytic activity
CC[C@H](C)[C@H](NC(=O)CN)C(=O)NCC(=O)N[C@@H](CCCCN)C(=O)N[C@@H](Cc1ccccc1)C(=O)N[C@@H](CC(C)C)C(=O)N[C@@H](CCCCN)C(=O)N[C@@H](CCCCN)C(=O)N[C@@H](C)C(=O)N[C@@H](CCCCN)C(=O)N[C@]1(C)CCCCCCC=CCCC[C@@](C)(C(=O)N[C@H](C(=O)N[C@@H](CC(C)C)C(=O)N[C@@H](CCCCN)C(=O)N[C@@H](CCCCN)C(N)=O)[C@@H](C)CC)NC(=O)[C@H](C(C)C)NC(=O)[C@H](Cc2ccccc2)NC(=O)[C@H](C)NC(=O)[C@H](CCCCN)NC(=O)CNC(=O)[C@H](Cc2ccccc2)NC1=O [PexStap 5] (H-GIGKFLKKAK[R8]FGKAFV[S5]ILKK-NH2; staple 11-18; N-terminus assumed)	1.6 (≈ 0.637 µM)	1.6 (≈ 0.637 µM)	around 83%	–	>50	3.1 (≈ 1.23 µM)	1.6 (≈ 0.637 µM)	higher levels of hemolytic activity when compared to PexStap2 and PexStap6

The next lines start with results.

MIC B. cereus (B. cereus) [µg/mL]	MIC E. coli (E. coli) [µg/mL]	α-helicity by CD in the presence of TFE [1]	α-helicity by CD in water, absence of TFE [1]	MIC S. marcescens (S. marcescens) [µg/mL]	MIC S. aureus (S. aureus) [µg/mL]	MIC P. aeruginosa (P. aeruginosa) [µg/mL]	Molecule	hemolytic activity (in words) (human red blood cells)
6.2 (≈ 2.45 µM)	3.1 (≈ 1.22 µM)	100%	100%	>50	–	–	CCCC[C@H](NC(=O)[C@@H](NC(=O)[C@H](CCC(=O)O)NC(=O)[C@H](C)NC(=O)[C@@H](NC(=O)[C@]1(C)CCCC=CCCCCCC[C@@](C)(NC(=O)[C@H](C)NC(=O)[C@H](Cc2c[nH]cn2)NC(=O)[C@H](CC(C)C)NC(=O)[C@H](Cc2ccccc2)NC(=O)[C@H](CCCCN)NC(=O)CNC(=O)[C@@H](NC(=O)CN)[C@@H](C)CC)C(=O)N[C@@H](CCCCN)C(=O)N[C@@H](CCCCN)C(=O)N[C@@H](Cc2ccccc2)C(=O)N[C@@H](C)C(=O)N[C@@H](CCCCN)C(=O)N[C@@H](C)C(=O)N1)C(C)C)[C@@H](C)CC)C(=O)N[C@@H](CC(N)=O)C(=O)N[C@@H](CO)C(N)=O [MagStap 3] (H-GIGKFLHA[R8]KKFAKA[S5]VAEI[Nle]NS-NH2; staple 9-16; N-terminus assumed)	–
12.5 (≈ 5.03 µM)	12.5 (≈ 5.03 µM)	–	100%	>50	–	–	CCCC[C@H](NC(=O)[C@@H](NC(=O)[C@H](CCC(=O)O)NC(=O)[C@H](C)NC(=O)[C@@H](NC(=O)[C@H](Cc1ccccc1)NC(=O)[C@H](C)NC(=O)[C@]1(C)CCCC=CCCCCCC[C@@](C)(NC(=O)[C@H](CC(C)C)NC(=O)[C@H](Cc2ccccc2)NC(=O)[C@H](CCCCN)NC(=O)CNC(=O)[C@@H](NC(=O)CN)[C@@H](C)CC)C(=O)N[C@@H](C)C(=O)N[C@@H](C)C(=O)N[C@@H](CCCCN)C(=O)N[C@@H](CCCCN)C(=O)N[C@@H](Cc2ccccc2)C(=O)N[C@@H](C)C(=O)N1)C(C)C)[C@@H](C)CC)C(=O)N[C@@H](CC(N)=O)C(=O)N[C@@H](CO)C(N)=O [MagStap 1] (H-GIGKFL[R8]AAKKFA[S5]AFVAEI[Nle]NS-NH2; staple 7-14; N-terminus assumed)	–
3.1 (≈ 1.19 µM)	3.1 (≈ 1.19 µM)	–	approximately 34%	>50	–	–	CCCC[C@H](NC(=O)[C@@H](NC(=O)[C@H](CCC(=O)O)NC(=O)[C@H](C)NC(=O)[C@@H](NC(=O)[C@H](Cc1ccccc1)NC(=O)[C@]1(C)CCCC=CCCCCCC[C@@](C)(NC(=O)[C@H](Cc2c[nH]cn2)NC(=O)[C@H](CC(C)C)NC(=O)[C@H](Cc2ccccc2)NC(=O)[C@H](CCCCN)NC(=O)CNC(=O)[C@@H](NC(=O)CN)[C@@H](C)CC)C(=O)N[C@@H](C)C(=O)N[C@@H](CCCCN)C(=O)N[C@@H](CCCCN)C(=O)N[C@@H](Cc2ccccc2)C(=O)N[C@@H](C)C(=O)N[C@@H](CCCCN)C(=O)N1)C(C)C)[C@@H](C)CC)C(=O)N[C@@H](CC(N)=O)C(=O)N[C@@H](CO)C(N)=O [MagStap 2] (H-GIGKFLH[R8]AKKFAK[S5]FVAEI[Nle]NS-NH2; staple 8-15; N-terminus assumed)	–
